Reference: patent US9408863B2, “5′-substituted nucleoside analogs and methods of use thereof for the treatment of viral diseases” (Merck Sharp & Dohme Corp., priority 2011, dated 2016)
Like-named read-outs stand apart in the source and are kept apart here.

Test system: HCV replicon (1b) in replicon cells
Assay: Cell-based HCV replicon assay (replicon RNA level by real time PCR, Taqman)
Conditions: Hepatitis C virus, 72 h, read-out: 1b EC50
Procedure: To measure cell-based anti-HCV activity of selected compounds of the present invention, replicon cells were seeded at 5000 cells/well in 96-well collagen I-coated Nunc plates in the presence of the test compound. Various concentrations of test compound, typically in 10 serial 2-fold dilutions, were added to the assay mixture, with the starting concentration ranging from 250 μM to 1 μM. The final concentration of dimethylsulfoxide was 0.5%, fetal bovine serum was 5%, in the assay media. Cells were harvested on day 3 by the addition of 1× cell lysis buffer (Ambion cat #8721). The replicon RNA level was measured using real time PCR (Taqman assay). The amplicon was located in 5B. The PCR primers were: 5B.2F, ATGGACAGGCGCCCTGA (SEQ ID. NO. 1); 5B.2R, […] (SEQ ID. NO. 2); the probe sequence was FAM-labeled CACGCCATGCGCTGCGG (SEQ ID. NO. 3). GAPDH RNA was used as endogenous control and was amplified in the same reaction as NS5B (multiplex PCR) using primers and VIC-labeled probe recommended by the manufacturer (PE Applied Biosystem). The real-time RT-PCR reactions were run on ABI PRISM 7900HT Sequence Detection System using the following program: 48° C. for 30 minutes, 95° C. for 10 minutes, 40 cycles of 95° C. for 15 sec, 60° C. for 1 minute. The ACT values (CT5B-CTGAPDH) were plotted against the concentration of test compound and fitted to the sigmoid dose-response model using XLfit4 (MDL). EC50 was defined as the concentration of inhibitor necessary to achieve ΔCT=1 over the projected baseline; EC90 the concentration necessary to achieve ΔCT=3.2 over the baseline. Alternatively, to quantitate the absolute amount of replicon RNA, a standard curve was established by including serially diluted T7 transcripts of replicon RNA in the Taqman assay. All Taqman reagents were from PE Applied Biosystems. Such an assay procedure was described in detail in e.g. Malcolm et al., Antimicrobial Agents and Chemotherapy 50: 1013-1020 (2006).

[1] = HCV 1b replicon cells, harvested on day 3, EC50 = concentration to achieve ΔCT=1 over projected baseline

Row | Structure (SMILES) | EC50 | EC50 [1]
1 | CCCCOC(=O)[C@H](C)NP(=O)(Oc1cccc2ccccc12)O[C@H](C)[C@H]1O[C@@H](n2ccc(N)nc2=O)[C@](C)(O)[C@@H]1O (stereo partly shown) [Compound 2] | 10 µM | 
2 | C[C@H](O)[C@H]1O[C@@H](n2cnc3c(=O)[nH]c(N)nc32)[C@](C)(O)[C@@H]1O [Compound 11] |  | > 100 µM
3 | C[C@@H](O)[C@H]1O[C@@H](n2cnc3c(=O)[nH]c(N)nc32)[C@](C)(O)[C@@H]1O [Compound 9] |  | > 100 µM
4 | CC(O)[C@H]1O[C@@H](n2cnc3c(=O)[nH]c(N)nc32)[C@](C)(F)[C@@H]1O (stereo partly shown) [Compound 13] |  | 3.5 µM
5 | CCCCOC(=O)[C@H](C)NP(=O)(Oc1cccc2ccccc12)O[C@H](C)[C@H]1O[C@@H](n2ccc(=O)[nH]c2=O)[C@](C)(O)[C@@H]1O (stereo partly shown) [Compound 4] | > 100 µM | 
6 | C[C@@H](O)[C@H]1O[C@@H](n2ccc(N)nc2=O)[C@](C)(O)[C@@H]1O [Compound 1] |  | > 100 µM
7 | CC(O)[C@H]1O[C@@H](n2ccc(NC(=O)c3ccccc3)nc2=O)[C@](C)(F)[C@@H]1O (stereo partly shown) [Compound 7] |  | > 100 µM
8 | CC(O)[C@H]1O[C@@H](n2cnc3c(OCc4ccccc4)nc(NC(=O)c4ccccc4)nc32)[C@](C)(F)[C@@H]1O (stereo partly shown) [Compound 12] |  | 14 µM
9 | CCCCOC(=O)[C@H](C)NP(=O)(Oc1cccc2ccccc12)O[C@H](C)[C@H]1O[C@@H](n2cnc3c(=O)[nH]c(N)nc32)[C@](C)(O)[C@@H]1O (stereo partly shown) [Compound 10] | > 100 µM | 
10 | CC(O)[C@H]1O[C@@H](n2ccc(N)nc2=O)[C@](C)(F)[C@@H]1O (stereo partly shown) [Compound 8] |  | 38 µM
11 | CCCCOC(=O)[C@H](C)NP(=O)(Oc1cccc2ccccc12)O[C@@H](C)[C@H]1O[C@@H](n2ccc(N)nc2=O)[C@](C)(O)[C@@H]1O (stereo partly shown) [Compound 6] | > 100 µM | 
12 | C[C@@H](O)[C@H]1O[C@@H](n2ccc(=O)[nH]c2=O)[C@](C)(O)[C@@H]1O [Compound 3] |  | > 100 µM
13 | C[C@H](O)[C@H]1O[C@@H](n2ccc(N)nc2=O)[C@](C)(O)[C@@H]1O [Compound 5] |  | > 100 µM
